Values joined by “and” are separate entries in the source; they are usually repeats but may differ in a detail not shown here. Equal entries are not always repeated. Where two headings read alike, the source gives them in different places. Each block holds one molecule with its values, some of them ahead of it.
Columns and labels:
Thermoanalytical assay = format: physicochemical
Description: Thermoanalytical assay of the product according to Example 1.
Phendiline starts to evaporate respectively to decompose at 150° C. and 98% mass change can be observed up to 250° C.

Solubility in words = format: physicochemical
[1] = Solubility of phendiline hydrochloride in β-cyclodextrin solutions of various concentration; format: physicochemical; details: 37° C.; for solubility thermodynamic at 3 h: water with beta-cyclodextrin, phendiline equivalents; for β-cyclodextrin mmole / phendiline mmole: 3 hours
Description: 0.22 g. (0.6 mmole) of phendiline hydrochloride is stirred at 37° C. for 3 hours in 3 ml. of water and in β-cyclodextrin solutions of various concentration by a magnetic stirrer at 150 rot./min rate. The concentration of the dissolved phendiline hydrochloride is determined by spectrophotometry and expressed in phendiline equivalents.

[2] = Resorption tests on Sartorius SM 16750 Resorption model, diffusion and resorption rate constants; format: in vitro ADME; details: in vitro; for diffusion constant (Kd) from the intestine: resorption from the intestine
Description: (§1) The in vitro tests were justified by the fact that the measurements are much more reproducible than by carrying out the tests in vivo.
The resorption tests were performed on a Sartorius SM 16750 Resorption model, the membranes used were suitable for modelling the resorption from the stomach and from the intestine. On the basis of the test results the diffusion (Kd) and the resorption rate constant (Ki) were calculated for the test substances.

Acute toxicity = details: mouse, in vivo, dose as phendiline active ingredient, 5% Tween 80; for LD50 at 24 h: observation time 24 hours
[3] = Determination of dissolved (MG) and resorbed (Mi) active ingredient on Sartorius SM 16751 type model; format: in vitro ADME; details: 100. minute; segments of the gastro-intestinal system, in vitro; FIG. 1
Text: as §1
The dissolution and the resorption are subsequent processes which depend greatly on each other. Under physiological conditions resorption is partially influenced by the pH relations at the place of the resorption and partially by the time spent by the pharmaceutical at the place of the resorption.
The average spent time in each segment of the gastro-intestinal system and the pH values are as follows:
The determination of the dissolved (MG) and the resorbed (Mi) active ingredient was performed on a Sartorius SM 16751 type Lose model [H. Stricker: Pharm. Ind. 33, 157 (1971); H. Sticker: Drugs in Germany 14, 93 (1971)].
The amount of the resorbed phendiline, phendiline-CD-complex as well as phendiline hydrochloride and phendiline-hydrochloride-CD-complex from the gastro-intestinal tract is shown in FIG. 2 where F stands for the resorbed amount of phendiline, F-CD stands for the resorbed amount of phendiline-cyclodextrine-complex, FHCl stands for the resorbed amount of phendiline-hydrochloride and FHCl-CD stands for the resorbed amount of phendiline-hydrochloride-cyclodextrine-complex.

[4] = β-cyclodextrin 15 mg./ml. (13.2 mmole/l.)
[5] = β-cyclodextrin 20 mg./ml. (17.6 mmole/l.)
[6] = β-cyclodextrin 25 mg./ml. (22.0 mmole/l.)
[7] = β-cyclodextrin 30 mg./ml. (26.4 mmole/l.)

temperature of melting with decomposition (Thermoanalytical assay; thermoanalytical assay): 300 °C
Molecule: β-cyclodextrin

Molecule: CC(NCCC(c1ccccc1)c1ccccc1)c1ccccc1.Cl (stereo not drawn) [phendiline hydrochloride, N-(1-phenylethyl)-3,3-diphenylpropylamine hydrochloride]
solubility in water (Solubility in words): extremely poor
solubility thermodynamic at 3 h [1, 4]: 4390 µg/mL and 13900 µM
solubility thermodynamic at 3 h [1, 5]: 5950 µg/mL and 18600 µM
solubility thermodynamic at 3 h [1, 6]: 6940 µg/mL and 22000 µM
solubility thermodynamic at 3 h [1, 7]: 7510 µg/mL and 23800 µM
β-cyclodextrin mmole / phendiline mmole [1, 4]: 0.95
β-cyclodextrin mmole / phendiline mmole [1, 5]: 0.95
β-cyclodextrin mmole / phendiline mmole [1, 6]: 1.00
β-cyclodextrin mmole / phendiline mmole [1, 7]: 1.10
resorption rate constant (Ki) from the intestine [2]: 0.0049 min⁻¹
diffusion constant (Kd) from the intestine [2]: 6.7 × 10^-4 cm^2 min^-1
LD50 at 1 h (Acute toxicity; ip, intraperitoneal, observation time 1 hour): 81.1 mg/kg
LD50 at 24 h (Acute toxicity; po, per os): 522 mg/kg

decomposition temperature (Thermoanalytical assay; thermoanalytical assay): 270 °C
Molecule: Cyclodextrin

Molecule: CC(NCCC(c1ccccc1)c1ccccc1)c1ccccc1 (stereo not drawn) [phendiline, N-(1-phenylethyl)-3,3-diphenylpropylamine]
amount dissolved [3]: 75 mg
solubility in water (Solubility in words): very poor
solubility in water (Solubility in words; listed as Phendiline): not soluble in water
temperature at which it starts to evaporate respectively to decompose (Thermoanalytical assay; thermoanalytical assay): 150 °C
mass change (Thermoanalytical assay; up to 250° C.): 98%
resorption rate constant (Ki) from the intestine [2]: 0.0051 min⁻¹
diffusion constant (Kd) from the intestine [2]: 6.9 × 10^-4 cm^2 min^-1
LD50 at 24 h (Acute toxicity; ip, intraperitoneal): 47.5 mg/kg
LD50 at 72 h (Acute toxicity; po, per os, observation time 72 hours): 512 mg/kg

Source: patent US4518588A, “Process for the preparation of an inclusion complex of N-(1--phenylethyl)-3,3-diphenylpropylamine and the hydrochloride thereof respectively with cyclodextrin” (priority 1981, dated 1985)
